Reference: ChEMBL document CHEMBL3785091, “Discovery of AZD8165 a clinical candidate from a novel series of neutral thrombin inhibitors” (Medchemcomm, 2016)
Converted amounts (≈) assume the structure as drawn.

Key:
[1] = Kinetic solubility of compound in HBSS-MES buffer at 5 to 10 mM at pH 6.8 by LC-UV/MS analysis; format: physicochemical; settings: read-out: Kinetic_solubility
[2] = Bioavailability in Sprague-Dawley rat; format: ADME, organism-based; settings: in vivo
Rattus norvegicus [3] = species on record: Rattus norvegicus; test: Toxicity in rat arterial thrombosis model assessed as increase in bleeding time; format: organism-based; settings: in vivo
Cavia porcellus = species on record: Cavia porcellus; test: Cardiotoxicity in guinea pig by cardiac electrophysiology assay relative to control; format: toxicity, organism-based, Heart; settings: in vivo
Mus musculus = species on record: Mus musculus; test: Cardiotoxicity in mouse by electrophysiology assay relative to control; format: toxicity, organism-based; settings: in vivo
Rattus norvegicus [4] = species on record: Rattus norvegicus; test: Cardiotoxicity in rat by electrophysiology assay relative to control; format: toxicity, organism-based; settings: in vivo
Rattus norvegicus [5] = species on record: Rattus norvegicus; test: Toxicity in rat by irwin assay relative to control; format: organism-based; settings: in vivo
[6] = Drug excretion in dog urine assessed as compound unchanged; format: ADME, tissue-based, Canis lupus familiaris; settings: read-out: Drug excretion
[7] = Drug metabolism in dog urine; format: ADME, tissue-based, Canis lupus familiaris
Homo sapiens [8] = test: Toxicity in po dosed human; format: organism-based; settings: in vivo
Rattus norvegicus [9] = test: Bioavailability in rat dosed via colon route assessed as (5S)-N-[5-Chloro-2-(1H-tetrazol-1-yl)benzyl]-1-[(2R)-2-(4-fluorophenyl)-2-hydroxyacetyl]-4,5-dihydro-1H-pyrazole-5-carboxamide level; format: ADME, organism-based; settings: in vivo, other
[10] = Drug excretion in rat urine assessed as compound unchanged; format: ADME, tissue-based; settings: read-out: Drug excretion
[11] = Drug excretion in dog bile assessed as (5S)-N-[5-Chloro-2-(1H-tetrazol-1-yl)benzyl]-1-[(2R)-2-(4-fluorophenyl)-2-hydroxyacetyl]-4,5-dihydro-1H-pyrazole-5-carboxamide level; format: ADME, tissue-based, Canis lupus familiaris; settings: in vivo
[12] = Drug metabolism in rat urine; format: ADME, tissue-based
[13] = Drug excretion in rat bile assessed as (5S)-N-[5-Chloro-2-(1H-tetrazol-1-yl)benzyl]-1-[(2R)-2-(4-fluorophenyl)-2-hydroxyacetyl]-4,5-dihydro-1H-pyrazole-5-carboxamide level; format: ADME, tissue-based; settings: in vivo
Rattus norvegicus [14] = test: Oral bioavailability in rat assessed as (5S)-N-[5-Chloro-2-(1H-tetrazol-1-yl)benzyl]-1-[(2R)-2-(4-fluorophenyl)-2-hydroxyacetyl]-4,5-dihydro-1H-pyrazole-5-carboxamide level; format: ADME, organism-based; settings: in vivo
[15] = Drug excretion in human urine; format: ADME, tissue-based
Canis familiaris = test: Oral bioavailability in dog assessed as (5S)-N-[5-Chloro-2-(1H-tetrazol-1-yl)benzyl]-1-[(2R)-2-(4-fluorophenyl)-2-hydroxyacetyl]-4,5-dihydro-1H-pyrazole-5-carboxamide level; format: ADME, organism-based, Canis lupus familiaris; settings: in vivo
Homo sapiens [16] = test: Oral bioavailability in human; format: ADME, organism-based; settings: in vivo

O=C(NCc1cc(Cl)ccc1-n1cnnn1)[C@@H]1C[C@@H]2C[C@@H]2N1C(=O)[C@H](O)c1ccccc1
solubility kinetic [1]: 97 µM (≈ 43.9 µg/mL)
bioavailability [2]: 63%

CC(=O)O[C@@H](C(=O)N1N=CC[C@H]1C(=O)NCc1cc(Cl)ccc1-n1cnnn1)c1ccc(F)cc1
solubility kinetic [1]: 87.5 µM (≈ 43.7 µg/mL)

CC(C)(C)[C@@H](O)C(=O)N1C[C@@H]2C[C@@H]2[C@H]1C(=O)NCc1cc(Cl)ccc1-n1cnnn1
solubility kinetic [1]: 97 µM (≈ 42 µg/mL)
bioavailability [2]: 57%

O=C(NCc1cc(Cl)ccc1-n1cnnn1)[C@@H]1C[C@H]2C[C@H]2N1C(=O)[C@H](O)c1ccccc1
solubility kinetic [1]: 100 µM (≈ 45.3 µg/mL)
bioavailability [2]: 86%

CCCC[C@@H](O)C(=O)N1N=CC[C@H]1C(=O)NCc1cc(Cl)ccc1-n1cnnn1
solubility kinetic [1]: 59 µM (≈ 24.8 µg/mL)
bioavailability [2]: 70%

CCCC(=O)O[C@@H](C(=O)N1N=CC[C@H]1C(=O)NCc1cc(Cl)ccc1-n1cnnn1)c1ccc(F)cc1
solubility kinetic [1]: < 1 µM

O=C(NCc1cc(Cl)ccc1-n1cnnn1)[C@@H]1CC=NN1C(=O)[C@H](O)c1ccccc1
solubility kinetic [1]: 98 µM (≈ 43.1 µg/mL)
bioavailability [2]: 60%

O=C(NCc1cc(Cl)ccc1-n1cnnn1)[C@@H]1CC=NN1C(=O)[C@H](O)c1ccc(F)cc1
solubility kinetic [1]: 95 µM (≈ 43.5 µg/mL)
bioavailability [2]: 75%
fold change (FC) (Rattus norvegicus [3]): 2
fold change (FC) (Cavia porcellus): > 40
fold change (FC) (Mus musculus): > 40
fold change (FC) (Rattus norvegicus [4]): > 40
fold change (FC) (Rattus norvegicus [5]): > 24

CCCCC(=O)O[C@@H](C(=O)N1N=CC[C@H]1C(=O)NCc1cc(Cl)ccc1-n1cnnn1)c1ccc(F)cc1
solubility kinetic [1]: 20.5 µM (≈ 11.1 µg/mL)

CCC(=O)O[C@@H](C(=O)N1N=CC[C@H]1C(=O)NCc1cc(Cl)ccc1-n1cnnn1)c1ccc(F)cc1 [AZD-8165]
dose excreted [6]: 18%
Drug metabolism [7]: metabolite_detected
MTD (Homo sapiens [8]): 2.5 mg
F (Rattus norvegicus [9]): 30%
solubility kinetic [1]: 2.5 µM (≈ 1.28 µg/mL)
dose excreted [10]: 66%
Drug excretion [11]: metabolite_notdetected
Drug metabolism [12]: metabolite_detected
Drug excretion [13]: metabolite_notdetected
fold change (FC) (Cavia porcellus): > 40
fold change (FC) (Mus musculus): > 40
fold change (FC) (Rattus norvegicus [4]): > 40
fold change (FC) (Rattus norvegicus [5]): > 24
F (Rattus norvegicus [14]): 64%
Drug excretion [15]: metabolite_notdetected
F (Canis familiaris): 52%

CCOC(=O)CN[C@@H](C(=O)N1CC[C@H]1C(=O)NCc1ccc(/C(N)=N\O)cc1)C1CCCCC1 [XIMELAGATRAN]
F (Homo sapiens [16]): 20%
